Results on 1 compound are retold here after patent publication US20260000670A1 (priority 2022, published 2026).

Test [1] relates to mice. Briefly: hFIX transgene expression after re-dosing, 1-week vs 2-week dasatinib treatment. It is filed as in vivo. As to the method:
(§1) FIG. 7: In vivo study to assess the impact of prolonging the dasatinib treatment. All mouse groups, except Group 1, were immunized on day 1 with an i.v. injection of AAV8-hSeap (1e12 vg/kg). Four groups received an i.v. injection of AAV8-FactorIX (3e13 vg/kg) on day 43. Concomitantly to the first AAV administration, Groups 3 and 4 were treated with dasatinib for either 1 or 2 weeks, respectively. Dasatinib was administered at the dose of 50 mg/kg per oral gavage, twice per day and starting 1 hr before the first AAV treatment.
FIG. 10: Prolongation of dasatinib treatment upon first AAV8 dosing improves transgene expression after readministration. In the experiment described in FIG. 10, the levels of hFIX expression (ng/mL, median+/−SD) were measured for each group, starting on day 42 (one day before administration of AAV8-hFIX) and up to day 64.
In the experiment described in Example 1, despite the strong inhibition of anti-AAV antibody formation observed in most of the mice, 4 out of 10 dasatinib-treated animals started to develop anti-AAV8 IgG before re-dosing (FIG. 3C, days 15-21). […]
The inhibition of antibody formation to AAV8 correlated with the improvement of hFIX transgene expression after re-dosing, showing efficient transduction by the second AAV8(FIG. 10). Expression of hFIX was inversely correlated with the IgG and IgM titers measured on day 42 before re-dosing.

The subject of test [2] is mice. Briefly: anti-AAV8 IgM and IgG titers, 1-week vs 2-week dasatinib treatment in mice. The class given is in vivo. As to the method: as §1
FIGS. 8A-8B: Prolongation of dasatinib treatment from 1 week to 2 weeks improves the inhibition of IgM formation to AAV8. In the experiment described in FIG. 8A and FIG. 8B anti-AAV8 IgM titers (median+/−SD) were measured in each mouse group from day 0 (before AAV8-hSeap administration) to day 64, as described for FIGS. 2A-2C. Each circle represents an individual IgM titer.
FIGS. 9A-9B: Prolongation of dasatinib treatment from 1 week to 2 weeks improves the inhibition of IgG formation to AAV8. In the experiment described in FIG. 9A and FIG. 9B, anti-AAV8 IgG titers (median+/−SD) were measured in each mouse group from day 0 (before AAV8-hSeap administration) to day 64, as described for FIGS. 3A-3C. Each circle represents an individual IgG titer.
In the experiment described in Example 1, despite the strong inhibition of anti-AAV antibody formation observed in most of the mice, 4 out of 10 dasatinib-treated animals started to develop anti-AAV8 IgG before re-dosing (FIG. 3C, days 15-21). The presence of residual AAV8 particles in the circulation and in the tissues after the cessation of the dasatinib treatment might lead to this antibody formation. […] To this purpose, the same protocol was applied as in Example 1, but using either a 1-week or a 2-week dasatinib treatment. In addition, re-dosing was performed at a later time point (day 43 instead of day 22) to be able to observe potential antibody formation after the cessation of dasatinib treatment. This protocol is depicted in FIG. 7.
Circulating IgM and IgG directed against the AAV8 capsid were titrated in the serum samples (FIGS. 8A-8B and 9A-9B). The peaks of anti-AAV8 IgM were observed one week after first rAAV8 dosing, on day 8 for the immunized control Group 2 and on day 50 for the non-immunized control Group 1 (10/10 mice above the threshold) (FIGS. 8A-8B). […] Inhibition of IgM production was stronger in Group 4, treated with dasatinib for 2 weeks.

In test [3] the test system is PBMCs from human heathy donors. The test is described as follows: FluoroSpot T cell responses of PBMCs to AAV2 and AAV9 capsid peptide pools. It is filed as cell-based. Conditions: 100 nM dasatinib, 48 hrs, two donors. As to the method: FIGS. 12A-12B: Dasatinib treatment reduces T cell responses to AAV2 and AAV9 in vitro. PBMCs from human heathy donors were stimulated with peptide pools covering the AAV2 and AAV9 capsid sequences in the absence (black bars) or presence of 100 nM dasatinib (grey bars). After 48 hrs, IFN-γ- and TNF-α secreting cells were measured by Fluorospot. Mean Spot-Forming Cellsmedian+/−SD are shown for 1E6 PBMCs. Dotted line: Positivity threshold.
An important question was its potential effect on the cellular adaptive immune response. T cell responses to rAAV have been reported to induce the clearance of AAV-transduced cells and thereby decrease the duration of transgene expression. It is also known that T cell responses to AAV can mediate liver toxicities in the clinic. T cell responses to AAV can be measured in healthy human blood donors who have previously been infected with wild-type AAV. FluoroSpot assays reveal the proportions of IFN-y-and TNF-a-producing PBMCs induced upon incubation with pools of AAV capsid peptides. We used this assay to assess the response of PBMCs from two healthy blood donors to three different peptide pools covering the capsid sequences of AAV2 and AAV9 (FIGS. 12A-12B). […] Donor 2 had positive IFN-γ and/or TNF-α responses to AAV9 pools 2 and 3. All these responses were inhibited in the presence of 100 nM dasatinib.

A further test relates to murine splenocytes. The test is described as follows: AAV8-dependent cytokine and chemokine release by murine splenocytes. Conditions: dasatinib 100 nM, 50 nM or 12.5 nM; 24 hrs, AAV8-hSeap MOI 1E5. The class given is cell-based, C57BL/6 mouse. As to the method: Splenocytes were isolated from a C57/B16 mouse and incubated for 24 hrs with AAV8-hSeap at MOI 1E5 in the presence or absence of dasatinib (100 nM, 50 nM or 12.5 nM). Cytokines and chemokines were measured in the culture supernatants. LPS (positive) and PBS (negative) controls are shown on the graphs. Means+/−SD (triplicates). Dashed line: Lower limit of quantification.
To investigate the mechanism of dasatinib-mediated inhibition of the humoral response to AAV8 observed in mice (Examples 1 and 5), we looked whether the rapid production of cytokines and chemokines by immune cells was affected by the dasatinib treatment. Total splenocytes from a C57BL/6 mouse were cultured for 24 hrs in the presence or absence of dasatinib at different concentrations. Cytokines and chemokines secreted in the culture supernatants were analyzed using ProcartaPlex Immunoassays (Luminex).

[4] abbreviates: Group 4, dasatinib for 2 weeks, day 42.

For `Cc1nc(Nc2ncc(C(=O)Nc3c(C)cccc3Cl)s2)cc(N2CCN(CCO)CC2)n1` [dasatinib, N-(2-chloro-6-methylphenyl)-2-[[6-[4-(2-hydroxyethyl)-1-piperazinyl]-2-methyl-4-pyrimidinyl]amino]-5-thiazole carboxamide monohydrate], the “expression of hFIX, 2-week treatment compared with 1-week treatment” value in the test on mice [1] (Group 4 (2 weeks) vs Group 3 (1 week), after AAV8-FactorIX 3e13 vg/kg on day 43) is reported as “higher”. Besides, in the test with mice [1] (day 64, dasatinib-treated mice), the “hFIX levels in mice that remained IgG-negative on day 42” value is listed as “in the range of those measured in the non-immunized control Group 1”. In the test on mice [2] (Group 3, dasatinib 50 mg/kg oral twice per day for 1 week), the “anti-AAV8 IgM titers until administration of the second rAAV8” value is listed as “remained low to negative”. Also, the “mice with negative anti-AAV8 IgG titers” value in the test with mice [2] (Group 3, dasatinib for 1 week, day 42) is listed as 3/15. Further, in the test with mice [2] (Group 3, dasatinib for 1 week, day 42 before AAV8 re-dosing), the “mice with positive IgM titers to AAV8” value was “Four out of 15”. In addition, in the test on mice [2] (Group 4, dasatinib for 2 weeks), the “inhibition of IgM production compared with 1-week treatment” value is “stronger”. Also, in the test on mice [2] (setting [4]), the “mice with IgG titers below the positivity threshold” value is listed as 5/15 and the “mice with positive IgM titer” value is reported as “one”. The “median anti-AAV8 IgG titer” value with mice [2] (Group 4, dasatinib for 2 weeks, day 42, compared with 1-week Group 3) is on record as “much lower than in Group 3”. Moreover, the “anti-AAV8 IgG titers after rAAV8 re-administration” value with mice [2] (day 64, 3 weeks after rAAV8 re-administration) was “comparable in all mouse groups”. In test [3], the “IFN-γ responses (secreting cells) to AAV9 peptide pools” value is reported as “inhibited”; the “TNF-α responses (secreting cells) to AAV2 and AAV9 peptide pools” value is “inhibited”. In addition, in the test with murine splenocytes, the “IL-6 in culture supernatant” value is “dose-dependent decreases”, the “IP-10/CXCL10 in culture supernatant” value is reported as “dose-dependent decreases”, the “MCP-1 in culture supernatant” value is on record as “dose-dependent decreases” and the “MCP-3 in culture supernatant” value is on record as “dose-dependent decreases”. In the test on murine splenocytes, the “MIP-1α in culture supernatant” value is reported as “dose-dependent decreases”, the “MIP-1β in culture supernatant” value was “dose-dependent decreases”, the “MIP-2α in culture supernatant” value is recorded as “dose-dependent decreases” and the “TNF-α in culture supernatant” value was “dose-dependent decreases”.
